Measured values: patent publication US20250339402A1, “EFFECTIVE MEANS TO MODULATE NMDA RECEPTOR-MEDIATED TOXICITY” (FUNDAMENTAL PHARMA GMBH, priority 2022, published 2025)
Entries after “also recorded” stand apart in the source; their conditions may differ. Counter-ions that a name gives are not always drawn.

Tests used:
[1] = system: Primary mouse hippocampal neurons; test: Excitotoxic (glutamate/NMDA-induced) cell death in primary neuronal cultures, protection index; assay type: cell-based; conditions: for IC50: Mus musculus, Hippocampal neuron, excitotoxic cell death in primary neuronal cultures
Experimental: (§1) Primary mouse hippocampal neurons were prepared as previously described (Bading & Greenberg, Science, 1991; 253: 912-914; Zhang et al, Neuron, 2007, 53: 549-562) and maintained in Neurobasal-A medium supplemented with 2% B27, 5 mM L-Glutamax, and 0.5% Penicillin/Streptomycin until challenged with NMDA on days in vitro (DIV) 10. Glutamate-induced cell death was analyzed in a real-time manner by monitoring nuclear localized mCherry with IncuCyte® S3 Live-Cell Analysis System (Sartorius AG, Germany). Primary neurons plated in 24 well plates were infected with rAAV-hSyn-mCherry on DIV3 and challenged with 1 μM or 20 μM glutamate on DIV10. All compounds were added to the culture 30 min prior to glutamate/NMDA insult. Images were acquired following the glutamate application for 24 h with a 2 h interval, where 9-16 images were obtained via a 20×objective for each condition at each time point. Cell deaths were quantified by analyzing the existence of nuclear localized mCheery via the Basic Analyzer with Incucyte® 2021 software, size and average intensity were used as exclusion criteria.
In order to evaluate the protective effects of various compounds, a quantification method was developed to determine each compound's protection index. The protection index (from 0.0 to 10.0) was calculated by the area above the curve (AAC) during a 24 h excitotoxic stimuli, where the cell survival was normalized to the 0 h (FIG. 2), following the equation: […]
Where AAC represents for each compound, AACbasal represents for the basal condition without excitotoxic insult, AACVeh represents for the vehicle control with excitotoxic insult. Based on the equation, vehicle (DMSO) has a protection index at 0.0 and compound P401 of WO 2020/079244 has a protection index at 6.0 (at 10 μM).
The inventors also performed experiments with Group A compounds at lower concentration in a 3-fold dilution matter ([…]: 3.0, 1.0, 0.3, 0.1, 0.03) and were able to achieve a similar protection effect as 10 μM compound P401, but at a lower concentration.

Primary neurons = test: Reactive oxygen species (H2O2) induced neuronal death in primary neurons; assay type: cell-based, mouse; conditions: 300 μM H2O2 on DIV10, compounds added 30 min before, FIG. 3
Experimental: as §1, with “Images were acquired following the glutamate application for 24 h with a 2 h interval, where 9-16 images were obtained via a 20×objective for each condition at each time point.” left out
Primary neurons plated in 24 well plates were infected with rAAV-hSyn-mCherry on DIV3 and challenged with 300 μM H2O2 on DIV10. […] Cell deaths were quantified by analyzing the existence of nuclear localized mCherry via the Basic Analyzer with Incucyte® 2021 software, size and average intensity were used as exclusion criteria.

[2] = third subset, A++++ or above correlates with IC50, A++ and A+++ as defined in the source

Row | Structure (SMILES) | IC50 ([1]; third subset) [nM] | other results
1 | N#Cc1cccc(CN(CCN)C2CC2)c1F [Compound 219, 3-(((2-aminoethyl)(cyclopropyl)amino)methyl)-2-fluorobenzonitrile hydrochloride] | 480 | Biological Activity Rating [1, 2]: A+++
2 | NCCN(Cc1cccc(Br)c1F)C1CC1 [Compound 219B] | 1450 | Biological Activity Rating [1, 2]: A++
3 | CC(c1cccc(Cl)c1F)N(CCN)C1CC1 (centres unmarked) [Compound 220, N1-(1-(3-chloro-2-fluorophenyl)ethyl)-N1-cyclopropylethane-1,2-diamine hydrochloride] | – | protection against H2O2 insult (cell survival) (Primary neurons; hydrochloride): better protection against H2O2 insult compared to P401 at 10 μM; also recorded: even better protection than the prior art compound P401; Biological Activity Rating ([1]; second subset, protection index from area above curve over 24 h glutamate/NMDA insult, compounds added 30 min before, 10 μM, Group A also at lower concentrations, hydrochloride): A++++ (With a protection index between 5.0 to 7.0, provides a comparable protection to compound P401 (10 μM) at 0.1 μM.)
4 | CCC(c1cccc(Cl)c1F)N(CCN)C1CC1 (centres unmarked) [Compound 224, N1-(1-(3-chloro-2-fluorophenyl)propyl)-N1-cyclopropylethane-1,2-diamine hydrochloride] | 26 | –
5 | CC(C)C(c1cccc(Cl)c1F)N(CCN)C1CC1 (centres unmarked) [Compound 225] | 5 | –
6 | CC(c1cccc(Br)c1F)N(CCN)C1CCC1 (centres unmarked) [Compound 227B] | 300 | Biological Activity Rating [1, 2]: A+++
7 | CC(c1c(Cl)ccc(Cl)c1F)N(CCN)C1CC1 (centres unmarked) [Compound 242] | 300 | Biological Activity Rating [1, 2]: A+++
8 | CC(c1cc(Cl)ccc1F)N(CCN)C1CC1 (centres unmarked) [Compound 243] | 300 | Biological Activity Rating [1, 2]: A+++
9 | CC(c1cccc(F)c1Cl)N(CCN)C1CC1 (centres unmarked) [Compound 246] | 500 | Biological Activity Rating [1, 2]: A+++
10 | NCCN(C1CC1)C(CC(F)(F)F)c1cccc(Cl)c1F (centres unmarked) [Compound 247, N^1-(1-(3-chloro-2-fluorophenyl)-3,3,3-trifluoropropyl)-N^1-cyclopropylethane-1,2-diamine hydrochloride] | 10 | –
11 | CCC(c1cccc(Cl)c1F)N(CCN)C1CC(F)(F)C1 (centres unmarked) [Compound 248] | 120 | –
12 | CCC(c1cccc(C#N)c1F)N(CCN)C1CC1 (centres unmarked) [Compound 257, 3-(1-((2-aminoethyl)(cyclopropyl)amino)propyl)-2-fluorobenzonitrile hydrochloride] | 11 | –
13 | CCC(c1cccc(Br)c1F)N(CCN)C1CC1 (centres unmarked) [Compound 258] | 13 | –
14 | CCC(c1c(F)ccc(C#N)c1F)N(CCN)C1CC1 (centres unmarked) [Compound 259] | 32 | –
15 | N#Cc1cccc(C(N(CCN)C2CC2)C(F)(F)F)c1F (centres unmarked) [Compound 261, 3-[1-[2-aminoethyl(cyclopropyl)amino]-2,2,2-trifluoro-ethyl]-2-fluoro-benzonitrile hydrochloride] | 109 | –
16 | NCCN(C1CC1)C(c1cccc(Br)c1F)C(F)(F)F (centres unmarked) [Compound 261A, N′-[1-(3-bromo-2-fluoro-phenyl)-2,2,2-trifluoro-ethyl]-N′-cyclopropyl-ethane-1,2-diamine hydrochloride] | 33 | –
17 | CCCN(CCN)C(CC)c1cccc(Cl)c1F (centres unmarked) [Compound 262, N1-(1-(3-chloro-2-fluorophenyl)propyl)-N1-propylethane-1,2-diamine hydrochloride] | 10 | –

Row | Structure (SMILES) | IC50 ([1]; third subset) [nM] | other results
18 | NCCN(C1CC1)C(c1cccc(Cl)c1F)C(F)(F)F (centres unmarked) [Compound 263, N^1-(1-(3-chloro-2-fluorophenyl)-2,2,2-trifluoroethyl)-N^1-cyclopropylethane-1,2-diamine hydrochloride] | 255 | –
19 | CC(C)C(c1cccc(C#N)c1F)N(CCN)C1CC1 (centres unmarked) [Compound 264, 3-(1-((2-aminoethyl)(cyclopropyl)amino)-2-methylpropyl)-2-fluorobenzonitrile TFA salt] | 3 | –
20 | NCCN(C1CC1)C(c1cccc(Cl)c1F)C1CCC1 (centres unmarked) [Compound 267, N^1-((3-chloro-2-fluorophenyl)(cyclobutyl)methyl)-N^1-cyclopropylethane-1,2-diamine hydrochloride] | 130 | –
21 | NCCN(C1CC1)C(c1cccc(Cl)c1F)C1CCCC1 (centres unmarked) [Compound 268] | 280 | –
22 | NCCN(C1CC1)C(c1cccc(Cl)c1F)C(F)(F)C(F)(F)F (centres unmarked) [Compound 270, N1-(1-(3-chloro-2-fluorophenyl)-2,2,3,3,3-pentafluoropropyl)-N1-cyclopropylethane-1,2-diamine TFA salt] | 13 | –
23 | C=CCC(c1cccc(Cl)c1F)N(CCN)C1CC1 (centres unmarked) [Compound 271A, N′-[1-(3-chloro-2-fluoro-phenyl)but-3-enyl]-N′-cyclopropyl-ethane-1,2-diamine TFA salt] | 7 | –
24 | NCCN(C1CC1)C(c1cccc(Cl)c1F)C(F)F (centres unmarked) [Compound 275, N1-(1-(3-chloro-2-fluorophenyl)-2,2-difluoroethyl)-N1-cyclopropylethane-1,2-diamine hydrochloride] | 468 | Biological Activity Rating [1, 2]: A+++
25 | CC(c1cc(Cl)cs1)N(CCN)C1CC1 (centres unmarked) [Compound 279, N′-[1-(4-chloro-2-thienyl)ethyl]-N′-cyclopropyl-ethane-1,2-diamine hydrochloride] | 230 | –
26 | N#Cc1cccc(C(CC(F)(F)F)N(CCN)C2CC2)c1F (centres unmarked) [Compound 280, 3-(1-((2-aminoethyl)(cyclopropyl)amino)-3,3,3-trifluoropropyl)-2-fluorobenzonitrile hydrochloride] | 36 | –
27 | CC(C)C(c1cccc(Cl)c1F)N(CCN)CC(F)F (centres unmarked) [Compound 282, N′-[1-(3-chloro-2-fluoro-phenyl)-2-methyl-propyl]-N′-(2,2-difluoroethyl)ethane-1,2-diamine TFA salt] | 51 | –
28 | CC(C)(F)C(c1cccc(C#N)c1F)N(CCN)C1CC1 (centres unmarked) [Compound 287, 3-[1-[2-aminoethyl(cyclopropyl)amino]-2-fluoro-2-methyl-propyl]-2-fluoro-benzonitrile TFA salt] | 3 | –
29 | CC(C)C(c1cccc(Br)c1F)N(CCN)C1CC1 (centres unmarked) [Compound 294, N′-[1-(3-bromo-2-fluoro-phenyl)-2-methyl-propyl]-N′-cyclopropyl-ethane-1,2-diamine TFA salt] | 10 | –
30 | C#Cc1cccc(C(C)N(CCN)C2CC2)c1F (centres unmarked) [Compound 295, N′-cyclopropyl-N′-[1-(3-ethynyl-2-fluoro-phenyl)ethyl]ethane-1,2-diamine TFA salt] | 32 | –
31 | CC(c1scc(C#N)c1F)N(CCN)C1CC1 (centres unmarked) [Compound 297, 5-[1-[2-aminoethyl(cyclopropyl)amino]ethyl]-4-fluoro-thiophene-3-carbonitrile TFA salt] | 974 | Biological Activity Rating [1, 2]: A+++
32 | CC(c1scc(Br)c1F)N(CCN)C1CC1 (centres unmarked) [Compound 297A, N′-[1-(4-bromo-3-fluoro-2-thienyl)ethyl]-N′-cyclopropyl-ethane-1,2-diamine TFA salt] | 81 | –
33 | CCN(CCN)Cc1cccc(Cl)c1 [Compound P401, (2-aminoethyl)[(3-chlorophenyl)methyl]ethylamine, reference compound] | – | protection against H2O2 insult (cell survival) (Primary neurons): better protection against H2O2 insult compared to FDA-approved ALS drug Riluzole and Edaravone; also recorded: better protection against H2O2 insult than the FDA-approved ALS drug Riluzole and Edaravone; protection (cell survival after glutamate/NMDA treatment) ([1]; 10 μM, primary cultured neurons, FIG. 2): ~60%; protection index ([1]; at 10 μM, scale 0.0 to 10.0, vehicle (DMSO) = 0.0): 6.0
